Read-outs that look alike come from different tables or passages of the source.
Experiments:
advanced solid tumors = details: cited from earlier work
[1] = for Cmax, Clast and tmax versus other part and niraparib monotherapy: first dose
[2] = Dostarlimab serum pharmacokinetics; format: in vivo, human; details: coadministration of niraparib, carboplatin–paclitaxel, or bevacizumab
[3] = biological target: PD-1 receptors on CD3+ T-cells (Homo sapiens, UniProt Q15116); test: PD-1 receptor occupancy by flow cytometry; format: cell-based; details: by end of treatment; parts A, B and D
Sequence of PD-1 receptors on CD3+ T-cells (Q15116 25-288): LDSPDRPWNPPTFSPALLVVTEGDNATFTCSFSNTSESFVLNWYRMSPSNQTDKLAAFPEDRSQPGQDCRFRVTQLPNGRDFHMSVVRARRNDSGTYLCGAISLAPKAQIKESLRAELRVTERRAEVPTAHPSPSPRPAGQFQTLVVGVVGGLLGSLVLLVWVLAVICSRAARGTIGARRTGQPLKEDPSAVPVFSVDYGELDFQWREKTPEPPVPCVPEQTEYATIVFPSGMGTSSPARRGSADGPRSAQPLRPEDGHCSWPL

non-squamous NSCLC = details: combination with chemotherapy; cited from earlier work

In the case of `NC(=O)c1cccc2cn(-c3ccc([C@@H]4CCCNC4)cc3)nc12` [niraparib, [3S]-3-[4-[7-(aminocarbonyl)-2H-indazol-2-yl]phenyl] piperidine], the “Variability of exposure, monotherapy data” value (advanced solid tumors) is given as “up to 66%”, the “Cmax lower in part C than in part A” value ([1]; 200 mg) is given as 47.1% and the “Exposures (Cmax and AUClast) versus monotherapy” value ([1]; 200 mg, part A) is given as “comparable to monotherapy”. The “AUClast higher in part C than in part A” value ([1]; 300 mg QD) was “approximately 46%”, the “AUClast lower than niraparib monotherapy” value ([1]; 300 mg, part A) was 9.6% and the “AUClast higher than niraparib monotherapy” value ([1]; 300 mg, part C) was 31.6%. The “Cmax, Clast and tmax versus other part and niraparib monotherapy” value ([1]; 300 mg) was “consistent across both parts and similar to PK data for niraparib monotherapy”, the “Cmax, Clast and tmax versus other part and niraparib monotherapy” value ([1]; 300 mg, listed as Niraparib) was “consistent in parts A and C” and the “Variability of niraparib exposure” value ([1]; regardless of dose and cohort) was ~ 50%.

For “dostarlimab: PD-1 inhibitor; IgG4 humanized monoclonal antibody that binds with high affinity to PD-1”, the “Effect of the combination partners on dostarlimab PK” value [2] was “no observed impact” and the “Overall mean PD-1 receptor occupancy” value [3] was 99.0%.

For “pembrolizumab: anti-PD-1 antibody, given with chemotherapy in the cited trials”, the “Grade ≥3 neutropenia” value (non-squamous NSCLC) is listed as 15.8%.

From PMC8948406 (Journal for Immunotherapy of Cancer, 2022)
